Each structure is given as a SMILES string. pIC50: −log10 of the molar value.

The target of this assay is USP7 (Homo sapiens, UniProt Q93009). The assay is described as follows: USP7 inhibitory potency (IC50). The format is biochemical. The protocol: Activity for compounds described herein is provided in Table 2, wherein potency levels are provided as follows: (Potency: USP7 IC50: A<0.01 μM; B=0.01-0.1 μM; C=>0.1 μM.
Sequence of USP7 (Q93009 whole entry): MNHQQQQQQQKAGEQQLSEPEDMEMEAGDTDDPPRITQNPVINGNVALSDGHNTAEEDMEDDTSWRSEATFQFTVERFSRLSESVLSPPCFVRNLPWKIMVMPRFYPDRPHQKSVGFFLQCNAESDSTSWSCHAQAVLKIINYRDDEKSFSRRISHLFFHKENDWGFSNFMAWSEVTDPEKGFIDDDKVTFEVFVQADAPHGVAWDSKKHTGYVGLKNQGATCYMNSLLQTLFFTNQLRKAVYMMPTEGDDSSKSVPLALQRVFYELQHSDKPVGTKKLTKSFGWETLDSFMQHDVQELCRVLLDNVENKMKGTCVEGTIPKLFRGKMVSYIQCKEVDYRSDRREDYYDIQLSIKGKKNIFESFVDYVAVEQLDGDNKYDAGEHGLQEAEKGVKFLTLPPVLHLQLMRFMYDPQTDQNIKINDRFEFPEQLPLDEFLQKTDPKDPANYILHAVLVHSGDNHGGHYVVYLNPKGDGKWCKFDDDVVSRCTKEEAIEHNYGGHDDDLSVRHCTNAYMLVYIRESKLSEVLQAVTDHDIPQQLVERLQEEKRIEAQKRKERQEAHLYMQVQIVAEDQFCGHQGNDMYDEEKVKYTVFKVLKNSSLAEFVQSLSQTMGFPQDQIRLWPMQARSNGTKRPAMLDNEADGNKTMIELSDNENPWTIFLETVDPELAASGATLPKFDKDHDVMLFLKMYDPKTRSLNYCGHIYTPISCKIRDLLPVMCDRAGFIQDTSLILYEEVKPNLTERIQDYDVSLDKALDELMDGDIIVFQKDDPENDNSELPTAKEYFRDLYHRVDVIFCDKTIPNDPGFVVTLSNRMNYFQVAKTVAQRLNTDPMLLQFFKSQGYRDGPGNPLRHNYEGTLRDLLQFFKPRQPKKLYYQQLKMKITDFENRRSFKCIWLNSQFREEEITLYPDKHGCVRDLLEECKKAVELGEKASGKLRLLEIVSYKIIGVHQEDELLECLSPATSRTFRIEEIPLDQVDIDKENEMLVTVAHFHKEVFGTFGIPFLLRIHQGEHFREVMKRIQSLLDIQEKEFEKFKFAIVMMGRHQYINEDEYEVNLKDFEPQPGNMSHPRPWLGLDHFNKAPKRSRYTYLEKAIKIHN

In general, pIC50 refers to the negative decadic logarithm of the IC50, by convention in mol/L. A higher pIC50 goes with a small IC50. As for `Cc1cc(Cl)cc(-c2ncnc3cc(CN4C(=O)CC(C)NC4=O)sc23)c1C[C@@H]1CNCCO1` (stereo partly drawn) [Example 248, 3-((4-(5-chloro-3-methyl-2-(((R)-morpholin-2-yl)methyl)phenyl)thieno[3,2-d]pyrimidin-6-yl)methyl)-6-methyldihydropyrimidine-2,4(1H,3H)-dione], the pIC50 is over 8.00.

In the case of `Cc1cc(Cl)cc(-c2ncnc3cc(CN4C(=O)NCC(C)C4=O)sc23)c1C[C@@H]1CNCCO1` (stereo partly drawn) [Example 249, 3-((4-(5-chloro-3-methyl-2-(((R)-morpholin-2-yl)methyl)phenyl)thieno[3,2-d]pyrimidin-6-yl)methyl)-5-methyldihydropyrimidine-2,4(1H,3H)-dione], the negative-log IC50 (pIC50) is over 8.00. For `CC1(C)CNCC(Cc2c(-c3ncnc4cc(CN5C(=O)C6CC6C5=O)sc34)cc(Cl)cc2C(F)F)O1` (stereo not shown) [Example 250, 3-((4-(5-chloro-3-(difluoromethyl)-2-((6,6-dimethylmorpholin-2-yl)methyl)phenyl)thieno[3,2-d]pyrimidin-6-yl)methyl)-3-azabicyclo[3.1.0]hexane-2,4-dione] the value was over 8.00. `CC1(C)CNCC(Cc2c(Cl)cc(Cl)cc2-c2ncnc3cc(Cn4cnccc4=O)sc23)O1` (stereo not shown) [Example 251, 3-((4-(3,5-dichloro-2-((6,6-dimethylmorpholin-2-yl)methyl)phenyl)thieno[3,2-d]pyrimidin-6-yl)methyl)pyrimidin-4(3H)-one] gave a pIC50 of under 7.00. `Cn1ccc(=O)n(Cc2cc3ncnc(-c4cc(Cl)cc(Cl)c4CC4CNCC(C)(C)O4)c3s2)c1=O` (stereo not shown) [Example 252, 3-((4-(3,5-dichloro-2-((6,6-dimethylmorpholin-2-yl)methyl)phenyl)thieno[3,2-d]pyrimidin-6-yl)methyl)-1-methylpyrimidine-2,4(1H,3H)-dione] gave a pIC50 of over 8.00. In the case of `CN1CC(=O)N(Cc2cc3ncnc(-c4cc(Cl)cc(Cl)c4CC4CNCC(C)(C)O4)c3s2)C1=O` (stereo not shown) [Example 253, 3-((4-(3,5-dichloro-2-((6,6-dimethylmorpholin-2-yl)methyl)phenyl)thieno[3,2-d]pyrimidin-6-yl)methyl)-1-methylimidazolidine-2,4-dione], the pIC50 was over 8.00. For `Cc1cc(Cl)cc(-c2ccnc3cc(Cn4c(=O)ccn(CC(F)(F)F)c4=O)sc23)c1CN1CCNCCC1=O` [Example 255, 3-((7-(5-chloro-3-methyl-2-((7-oxo-1,4-diazepan-1-yl)methyl)phenyl)thieno[3,2-b]pyridin-2-yl)methyl)-1-(2,2,2-trifluoroethyl)pyrimidine-2,4(1H,3H)-dione] the value was 7.00 to 8.00; for `Cc1cc(Cl)cc(-c2ccnc3cc(Cn4c(=O)ccn(CC(F)(F)F)c4=O)sc23)c1CN1CCCNCC1=O` [Example 256, 3-((7-(5-chloro-3-methyl-2-((2-oxo-1,4-diazepan-1-yl)methyl)phenyl)thieno[3,2-b]pyridin-2-yl)methyl)-1-(2,2,2-trifluoroethyl)pyrimidine-2,4(1H,3H)-dione], 7.00 to 8.00. In the case of `Cc1cc(Cl)cc(-c2ncnc3cc(CN4C(=O)CCN(CCF)C4=O)sc23)c1C[C@@H]1CNCC(C)(C)O1` [Example 257, 3-[[4-[5-chloro-2-[[(2R)-6,6-dimethylmorpholin-2-yl]methyl]-3-methyl-phenyl]thieno[3,2-d]pyrimidin-6-yl]methyl]-1-(2-fluoroethyl)hexahydropyrimidine-2,4-dione] it was over 8.00. For `Cc1cc(Cl)cc(-c2ncnc3cc(CN4C(=O)CCN(CCF)C4=O)sc23)c1CN1[C@@H](C)CNC[C@@H]1C` [Example 258, 3-((4-(5-chloro-2-(((2S,6S)-2,6-dimethylpiperazin-1-yl)methyl)-3-methylphenyl)thieno[3,2-d]pyrimidin-6-yl)methyl)-1-(2-fluoroethyl)dihydropyrimidine-2,4(1H,3H)-dione] the value was over 8.00; for `Cc1cc(Cl)cc(-c2ncnc3cc(CN4C(=O)CCN(CC(F)F)C4=O)sc23)c1CN1[C@@H](C)CNC[C@@H]1C` [Example 259, 3-((4-(5-chloro-2-(((2S,6S)-2,6-dimethylpiperazin-1-yl)methyl)-3-methylphenyl)thieno[3,2-d]pyrimidin-6-yl)methyl)-1-(2,2-difluoroethyl)dihydropyrimidine-2,4(1H,3H)-dione], over 8.00; for `Cc1cc(Cl)cc(-c2ncnc3cc(CN4C(=O)CCN(CC(F)(F)F)C4=O)sc23)c1CN1[C@@H](C)CNC[C@@H]1C` [Example 260, 3-((4-(5-chloro-2-(((2S,6S)-2,6-dimethylpiperazin-1-yl)methyl)-3-methylphenyl)thieno[3,2-d]pyrimidin-6-yl)methyl)-1-(2,2,2-trifluoroethyl)dihydropyrimidine-2,4(1H,3H)-dione], over 8.00. With `Cc1cc(Cl)cc(-c2ncnc3cc(CN4C(=O)CN(CC(=O)O)C4=O)sc23)c1C[C@@H]1CNCCO1` [Example 261, (R)-2-(3-((4-(5-chloro-3-methyl-2-(morpholin-2-ylmethyl)phenyl)thieno[3,2-d]pyrimidin-6-yl)methyl)-2,4-dioxoimidazolidin-1-yl)acetic acid], the pIC50 is 7.00 to 8.00.

For `Cc1cc(Cl)cc(-c2ncnc3cc(Cn4c(C#N)cccc4=O)sc23)c1C[C@@H]1CNCC(C)(C)O1` [Example 262, (R)-1-((4-(5-chloro-2-((6,6-dimethylmorpholin-2-yl)methyl)-3-methylphenyl)thieno[3,2-d]pyrimidin-6-yl)methyl)-6-oxo-1,6-dihydropyridine-2-carbonitrile], the pIC50 was under 7.00. `Cc1cc(Cl)cc(-c2ncnc3cc(CN4C(=O)OC[C@@H]4CF)sc23)c1C[C@@H]1CNCC(C)(C)O1` [Example 263, (R)-3-((4-(5-chloro-2-(((R)-6,6-dimethylmorpholin-2-yl)methyl)-3-methylphenyl)thieno[3,2-d]pyrimidin-6-yl)methyl)-4-(fluoromethyl)oxazolidin-2-one] gave a pIC50 of over 8.00. For `Cc1cc(Cl)cc(-c2ncnc3cc(CN4C(=O)CN(CCCC(=O)O)C4=O)sc23)c1C[C@@H]1CNCCO1` [Example 264, (R)-4-(3-((4-(5-chloro-3-methyl-2-(morpholin-2-ylmethyl)phenyl)thieno[3,2-d]pyrimidin-6-yl)methyl)-2,4-dioxoimidazolidin-1-yl)butanoic acid] the value was 7.00 to 8.00; for `Cc1cc(Cl)cc(-c2ncnc3cc(CN4C(=O)CCN(CCCC(=O)O)C4=O)sc23)c1C[C@@H]1CNCCO1` [Example 265, (R)-4-(3-((4-(5-chloro-3-methyl-2-(morpholin-2-ylmethyl)phenyl)thieno[3,2-d]pyrimidin-6-yl)methyl)-2,4-dioxotetrahydropyrimidin-1(2H)-yl)butanoic acid], 7.00 to 8.00; for `Cc1cc(Cl)cc(-c2ncnc3cc(Cn4c(=O)cc[nH]c4=O)sc23)c1C[C@@H]1CNCC(C)(C)O1` [Example 266, (R)-3-((4-(5-chloro-2-((6,6-dimethylmorpholin-2-yl)methyl)-3-methylphenyl)thieno[3,2-d]pyrimidin-6-yl)methyl)pyrimidine-2,4(1H,3H)-dione], 7.00 to 8.00. In the case of `Cc1cc(Cl)cc(-c2ncnc3cc(Cn4ccc(=O)[nH]c4=O)sc23)c1C[C@@H]1CNCC(C)(C)O1` [Example 267, (R)-1-((4-(5-chloro-2-((6,6-dimethylmorpholin-2-yl)methyl)-3-methylphenyl)thieno[3,2-d]pyrimidin-6-yl)methyl)pyrimidine-2,4(1H,3H)-dione] it was over 8.00.

Source of the values: US11084829B2, “Ubiquitin-specific-processing protease 7 (USP7) modulators and uses thereof” (RAPT THERAPEUTICS, INC., priority 2018, dated 2021).
